Experimental data as given in patent US6699834B1, “Method for treating cancer” (University of Maryland Biotechnology Institute, priority 1997, dated 2004).

Assays:
HIV-1 = conditions: for HIV in vitro Inhibition: inhibition of HIV-1 replication in vitro (HIV-1 strains and HIV-1 primary isolates)
From the text: To prepare HIV infected cells for the in vitro assay of hCG preparations and β-hCG peptides and derivatives, primary PBMCs, macrophages, and CD4^+ T cells isolated from peripheral blood and the H9 human T cell line, were acutely or chronically infected with 8 different HIV-1 strains: 4 cell line adapted viruses, namely the macrophage tropic Ba-L strain (Gartner et al., 1986, Science 233:215-219) and the CD4^+ T cell tropic MN, RF, and IIIB strains (10^5 TCID50/ml) (Popovic et al., 1984, Science […]; Gallo et al.; 1984, Science 224:500-503); 2 isolates, Ju1083 and G3, from Nigerian AIDS patients passed once in a CD4^+ T cell line (Sub-T1); and 2 primary (“clinical”) isolates from AIDS patients from Trinidad which were never passed in any cell line and were used at a titer of 7.5×10^4TCID50/ml. In all experiments; HIV1 (10^5 TCID50/ml) was added to the cells(10^6 cells/ml) for a 2 hour incubation after which the virus infected cells were washed with 10 ml phosphate buffered saline (PBS) three times to eliminate extra cellular virus. The test inhibitor, i.e. the hCG or β-hCG peptide preparation was then added and the cells were incubated with the test inhibiter for 9 to 10 days with serial sampling. Cultures were assayed for p24 antigen on days 3 to 10.
Peptides of the α- and β-subunits (0.05 to 50 nmoles/ml), native α chain preparation, and various crude preparations of the native hCG heterodimer (0.01 to 1,000 IU) and the native β-hCG subunit (100 to 1,000 μg) were tested for effects on HIV-1 replication in acutely infected cells-by measuring change in viral antigen levels in response to the above noted preparations (FIGS. 4A-D and Table 3).
The fractions were then tested for anti-HIV, anti-KS and pro-hematopoietic activities in vitro. To assay for inhibition of HIV-1 replication in vitro, the HIV-1 […] viral strain was used to infect PBMCs and PM-1 cells (derived from the HUT-78 T-cell lymphoma cell line) at 10^3 TCID50/ml as described in detail herein.

KS Y-1 and KS-SLK cells = assay: Kaposi's Sarcoma clonogenic assay in cultured cells; assay type: cell-based, human; conditions: inhibition of Kaposi's Sarcoma cell growth in vitro in cultured cells
Method: Briefly, the KS Y-1 cells were obtained from mononuclear cells isolated from pleural effusion of an AIDS patient with KS in the lungs. After the depletion of T lymphocytes, monocytes/macrophages and fibroblasts using monoclonal antibodies against CD2, CD3, CD4, CD8, CD10 and CD14 membrane antigens and baby rabbit complement, the cells were cultured in the absence of exogenous growth factors to select for transformed cells. […] Clonogenic assays were performed by seeding the KS Y-1 or KS-SLK cells in methylcellulose (0.8%, v/v), incubating the cells for 10 days in the presence or absence of the hCC, β-hCG or β-hCG peptide preparations and then counting the number of well-formed colonies of triplicate wells formed after seeding with 5×10^4 cells.
To assay for activity against Kaposi's sarcoma cell growth in vitro, the clonogenic assay described herein was used with the KS Y-1 and KS-SLK cultured Kaposi's Sarcoma cell lines,.

[1] = test system: hematopoietic progenitor cells; assay: Hematopoietic progenitor clonogenic assays (CFU-GEMM, BFU-e, CFU-GM); assay type: cell-based, human; conditions: relative increase of hematopoietic colony cell number; hCG preparations 200 IU/ml, subunits and peptides 100 μg/ml
Method: The effect of hCG preparations and peptides was assayed on hematopoietic progenitor cells in vitro: Hematopoietic progenitor cells (2×10^5 cell/ml) were isolated from normal bone marrow and cord blood and seeded in methylcellulose. […] The hCG preparations were administered at 200 IU/ml and the β- and α-subunits and peptides were administered at 100 μg/ml. The native commercial preparation of hCG (APL™, Wyeth Ayerst) was pre-tested for anti-HIV and anti-KS activities. Aggregates containing more than 50 cells after 10 days of culture were counted as colonies.

| Compound | HIV in vitro Inhibition (HIV-1) | KS in vitro (KS Y-1 and KS-SLK cells) | Pro-hematopoiesis in vitro Enhancement [1] | inhibition of HIV-1 infection/replication in vitro (in words) (HIV-1) |
| --- | --- | --- | --- | --- |
| 14. 1-20: β-hCG amino acids 1-20 (SKEPLRPRCRPINATLAVEK; UniProt P0DN86 21-40, looked up, fragment) | − (“−” represents less than 10% effect) | − (“−” represents less than 10% effect) | – | – |
| 16. 31-50: β-hCG amino acids 31-50 (TTICAGYCPTMTRVLQGVLP; UniProt P0DN86 51-70, looked up, fragment) | − (“−” represents less than 10% effect) | − (“−” represents less than 10% effect) | − (“−” represents less than 10% effect) | – |
| 17. 46-65: β-hCG amino acids 46-65 (SEQ ID NO:34) (QGVLPALPQVVCNYRDVRFE) | + (“+” represents greater than 15% effect) | + (“+” represents greater than 15% effect) | – | inhibited HIV-1 replication |
| 18. 91-112: β-hCG amino acids 91-112 (ALCRRSTTDCGGPKDHPLTCDD; UniProt P0DN86 111-132, looked up, fragment) | – | − (“−” represents less than 10% effect) | − (“−” represents less than 10% effect) | – |
| 19. 93-100: β-hCG amino acids 93-100 (CRRSTTDC; UniProt P0DN86 113-120, looked up, fragment) | − (“−” represents less than 10% effect) | − (“−” represents less than 10% effect) | – | – |
| 20. 110-145: β-hCG amino acids 110-145 (CDDPRFQDSSSSKAPPPSLPSPSRLPGPSDTPILPQ; UniProt P0DN86 130-165, looked up, fragment) | – | − (“−” represents less than 10% effect) | − (“−” represents less than 10% effect) | – |
| 21. 74-95: β-hCG amino acids 74-95 (RGVNPVVSYAVALSCQCALCRR; UniProt P0DN86 94-115, looked up, fragment) | − (“−” represents less than 10% effect) | − (“−” represents less than 10% effect) | − (“−” represents less than 10% effect) | – |
| 22. 7-40: β-hCG amino acids 7-40 (SEQ ID NO:33) (PRCRPINATLAVEKEGCPVCITVNTTICAGYCPT) | + (“+” represents greater than 15% effect) | + (“+” represents greater than 15% effect) | − (“−” represents less than 10% effect) | inhibited HIV-1 replication |
| 23. 57-93: β-hCG amino acids 57-93 (CNYRDVRFESIRLPGCPRGVNPVVSYAVALSCQCALC; UniProt P0DN86 77-113, looked up, fragment) | − (“−” represents less than 10% effect) | − (“−” represents less than 10% effect) | − (“−” represents less than 10% effect) | – |
| 24. 34-39: β-hCG amino acids 34-39 (CAGYCP; UniProt P0DN86 54-59, looked up, fragment) | − (“−” represents less than 10% effect) | − (“−” represents less than 10% effect) | – | – |
| 25. 123-145: β-hCG amino acids 123-145 | − (“−” represents less than 10% effect) | − (“−” represents less than 10% effect) | – | – |
| 26. 134-144: β-hCG amino acids 134-144 | − (“−” represents less than 10% effect) | − (“−” represents less than 10% effect) | − (“−” represents less than 10% effect) | – |
| 27. 100-110: β-hCG amino acids 100-110 (CGGPKDHPLTC; UniProt P0DN86 120-130, looked up, fragment) | − (“−” represents less than 10% effect) | − (“−” represents less than 10% effect) | – | – |
| 28. 113-132: β-hCG amino acids 113-132 (PRFQDSSSSKAPPPSLPSPS; UniProt P0DN86 133-152, looked up, fragment) | – | − (“−” represents less than 10% effect) | − (“−” represents less than 10% effect) | – |
| 29. 128-145: β-hCG amino acids 128-145 (LPSPSRLPGPSDTPILPQ; UniProt P0DN86 148-165, looked up, fragment) | − (“−” represents less than 10% effect) | − (“−” represents less than 10% effect) | −V (“−” represents less than 10% effect) | – |
| 31. 51-59: β-hCG amino acids 51-59 (ALPQVVCNY; UniProt P0DN86 71-79, looked up, fragment) | − (“−” represents less than 10% effect) | − (“−” represents less than 10% effect) | − (“−” represents less than 10% effect) | – |
| 34. 88-92: α-hCG amino acids 88-92 (YYHKS; UniProt P01215 112-116, looked up, fragment) | − (“−” represents less than 10% effect) | − (“−” represents less than 10% effect) | – | little or no effect |
| 36. 16-30: α-hCG amino acids 16-30 (PFFSQPGAPILQCMG; UniProt P01215 40-54, looked up, fragment) | − (“−” represents less than 10% effect) | − (“−” represents less than 10% effect) | − (“−” represents less than 10% effect) | – |
| 37. 26-45: α-hCG amino acids 26-45 (LQCMGCCFSRAYPTPLRSKK; UniProt P01215 50-69, looked up, fragment) | − (“−” represents less than 10% effect) | − (“−” represents less than 10% effect) | − (“−” represents less than 10% effect) | – |
| 38. 41-61: α-hCG amino acids 41-61 (LRSKKTMLVQKNVTSESTCCV; UniProt P01215 65-85, looked up, fragment) | − (“−” represents less than 10% effect) | − (“−” represents less than 10% effect) | – | – |
| 39. 57-76: α-hCG amino acids 57-76 (STCCVAKSYNRVTVMGGFKV; UniProt P01215 81-100, looked up, fragment) | − (“−” represents less than 10% effect) | − (“−” represents less than 10% effect) | – | – |
| 40. 72-92: α-hCG amino acids 72-92 (GGFKVENHTACHCSTCYYHKS; UniProt P01215 96-116, looked up, fragment) | − (“−” represents less than 10% effect) | − (“−” represents less than 10% effect) | − (“−” represents less than 10% effect) | – |
| Oc1ccccc1 [phenol, reference compound] | – | – | – | no effect on HIV-1 replication |
